ChEMBL document CHEMBL1201862, “PubChem BioAssay data set” (2004)
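Cultured in 96-well plates, cells were exposed to test compound for 48 hours across five concentrations. GI50 marks 50% less growth.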 Active and inactive are the calls of the source. Rule as the data show it: active = GI50 up to about 1.1 µM and inactive = higher.

Tests used:
Assay in all cases: NCI-60 cell line screen, 48 h
[1] = test system: 786-0
[2] = test system: A498
[3] = test system: CCRF-CEM
[4] = test system: COLO 205
[5] = test system: HL-60
[6] = test system: HT-29
[7] = test system: KM12
[8] = test system: M14
[9] = test system: Malme-3M
[10] = test system: NCI-H23
[11] = test system: NCI-H522
[12] = test system: RPMI-8226
[13] = test system: SF-295
[14] = test system: SK-OV-3
[15] = test system: SN12C
[16] = test system: SNB-75
[17] = test system: TK-10
[18] = test system: U-251
[19] = test system: UACC-62
[20] = test system: UO-31

Compound | GI50 [1] | GI50 [2] | GI50 [3] | GI50 [4] | GI50 [5] | GI50 [6] | GI50 [7] | GI50 [8] | GI50 [9] | GI50 [10] | GI50 [11] | GI50 [12] | GI50 [13] | GI50 [14] | GI50 [15] | GI50 [16] | GI50 [17] | GI50 [18] | GI50 [19] | GI50 [20]
C=CCCCC(C#N)(c1ccccc1)N1CCCC1 (stereo not given) | > 100 µM (inactive) | > 100 µM (inactive) | > 100 µM (inactive) | > 100 µM (inactive) | > 100 µM (inactive) | > 100 µM (inactive) | > 100 µM (inactive) | > 100 µM (inactive) | > 100 µM (inactive) | > 100 µM (inactive) | > 100 µM (inactive) | > 100 µM (inactive) | > 100 µM (inactive) | > 100 µM (inactive) | > 100 µM (inactive) | > 100 µM (inactive) | > 100 µM (inactive) | > 100 µM (inactive) | > 100 µM (inactive) | > 100 µM (inactive)
COc1cccc2c1C(=O)c1ccc3cc(CO)cc(O)c3c1C2=O | 0.619 µM (active) | 3.52 µM (inactive) | 0.204 µM (active) | 1.53 µM (inactive) | 0.171 µM (active) | 0.813 µM (active) | 0.893 µM (active) | 0.245 µM (active) | 0.046 µM (active) | 0.288 µM (active) | 0.865 µM (active) | 0.74 µM (active) | 3.03 µM (inactive) | 2.33 µM (inactive) | 0.748 µM (active) | 4.29 µM (inactive) | 3.01 µM (inactive) | 1.45 µM (inactive) | 0.279 µM (active) | 0.982 µM (active)
Cc1cccc(C2=C/C(=C(\SS/C(C(=O)c3ccc(OCC(=O)O)c(Cl)c3Cl)=C3\C=C(c4cccc(C)c4)SS3)C(=O)c3ccc(OCC(=O)O)c(Cl)c3Cl)SS2)c1 | 20 µM (inactive) | 24.4 µM (inactive) | 4.71 µM (inactive) | 7.94 µM (inactive) | 1.85 µM (inactive) | 27.7 µM (inactive) | 23.3 µM (inactive) | 22.1 µM (inactive) | 25.5 µM (inactive) | 12.1 µM (inactive) | 2.12 µM (inactive) | 16.9 µM (inactive) | 24.5 µM (inactive) | 36.6 µM (inactive) | 14.8 µM (inactive) | 18.7 µM (inactive) | 27.9 µM (inactive) | 4.51 µM (inactive) | 13.8 µM (inactive) | 13 µM (inactive)
COc1cc2c(/C=C3/C(=O)Nc4ccc(Cl)cc43)c(Cl)n(Cc3ccccc3)c2cc1C | 2.59 µM (inactive) | 2.65 µM (inactive) | 2.89 µM (inactive) | 2.41 µM (inactive) | 3.93 µM (inactive) | 8.26 µM (inactive) | 2.33 µM (inactive) | 4.19 µM (inactive) | 2.22 µM (inactive) | 2.84 µM (inactive) | 3.18 µM (inactive) | 2.51 µM (inactive) | 2.81 µM (inactive) | 1.74 µM (inactive) | 2.59 µM (inactive) | 2.04 µM (inactive) | 1.8 µM (inactive) | 2.3 µM (inactive) | 3.08 µM (inactive) | 2.51 µM (inactive)
Cc1ccc(NC(=O)C2C3CCC(O3)C2C(=O)O)cc1 (stereo not given) | > 40.6 µM (inactive) | > 45.1 µM (inactive) | > 44.8 µM (inactive) | 35.7 µM (inactive) | > 40.2 µM (inactive) | > 45 µM (inactive) | > 100 µM (inactive) | > 49.4 µM (inactive) | > 100 µM (inactive) | > 100 µM (inactive) | 43.6 µM (inactive) | 39.6 µM (inactive) | > 95.9 µM (inactive) | > 83.9 µM (inactive) | > 48.8 µM (inactive) | 31.9 µM (inactive) | > 100 µM (inactive) | 43.1 µM (inactive) | > 46.6 µM (inactive) | > 100 µM (inactive)
CN1CCN(CCn2c3c4ccccc4ccc3c3oc(=O)c4ccccc4c32)CC1 | 1.73 µM (inactive) | 5.09 µM (inactive) | 1.56 µM (inactive) | 1.8 µM (inactive) | 2.15 µM (inactive) | 1.36 µM (inactive) | 2.42 µM (inactive) | 1.68 µM (inactive) | 15.1 µM (inactive) | 5.83 µM (inactive) | 4.55 µM (inactive) | 2.61 µM (inactive) | 4.21 µM (inactive) | 12.7 µM (inactive) | 1.51 µM (inactive) | 4.37 µM (inactive) | 10.5 µM (inactive) | 2.49 µM (inactive) | 3.56 µM (inactive) | 2.19 µM (inactive)
c1ccc2c(c1)CCN1CCc3ccccc3C1C2 (stereo not given) | 25.1 µM (inactive) | > 100 µM (inactive) | 58.7 µM (inactive) | 38 µM (inactive) | 76.9 µM (inactive) | 28.2 µM (inactive) | 52.1 µM (inactive) | 23.1 µM (inactive) | > 100 µM (inactive) | 59.7 µM (inactive) | 51.9 µM (inactive) | 43 µM (inactive) | 26.9 µM (inactive) | 64 µM (inactive) | 43.4 µM (inactive) | 36.4 µM (inactive) | 59.6 µM (inactive) | 38.4 µM (inactive) | 29.7 µM (inactive) | 18.1 µM (inactive)
Cc1cccc(C)c1NC(=O)CCCC(=O)C(C#N)c1ccc(Cl)cc1 (stereo not given) | > 100 µM (inactive) | > 100 µM (inactive) | > 100 µM (inactive) | > 100 µM (inactive) | > 100 µM (inactive) | > 100 µM (inactive) | > 100 µM (inactive) | > 100 µM (inactive) | > 100 µM (inactive) | > 100 µM (inactive) | > 100 µM (inactive) | > 100 µM (inactive) | > 100 µM (inactive) | > 100 µM (inactive) | > 100 µM (inactive) | 35.6 µM (inactive) | > 100 µM (inactive) | > 100 µM (inactive) | > 100 µM (inactive) | > 100 µM (inactive)
CCOC(=O)C1CCC/C1=N\NC(=N)N.Cc1cc(O)c(C(C)C)cc1S(=O)(=O)O (stereo not given) | > 100 µM (inactive) | > 100 µM (inactive) | > 100 µM (inactive) | > 100 µM (inactive) | > 100 µM (inactive) | > 100 µM (inactive) | > 100 µM (inactive) | > 100 µM (inactive) | > 100 µM (inactive) | > 100 µM (inactive) | > 100 µM (inactive) | > 100 µM (inactive) | > 100 µM (inactive) | > 100 µM (inactive) | > 100 µM (inactive) | 36.2 µM (inactive) | > 100 µM (inactive) | > 100 µM (inactive) | > 100 µM (inactive) | > 100 µM (inactive)
CSCC(COC(C)=O)(CSC)c1ccncc1 | > 100 µM (inactive) | > 100 µM (inactive) | > 100 µM (inactive) | > 100 µM (inactive) | > 100 µM (inactive) | > 100 µM (inactive) | > 100 µM (inactive) | > 100 µM (inactive) | > 100 µM (inactive) | > 100 µM (inactive) | > 100 µM (inactive) | > 100 µM (inactive) | > 100 µM (inactive) | > 100 µM (inactive) | > 100 µM (inactive) | 85.7 µM (inactive) | > 100 µM (inactive) | > 100 µM (inactive) | > 100 µM (inactive) | > 100 µM (inactive)
CCOC(=O)C(C(=O)OCC)C1C=CCC2c3ccccc3COCC21 (stereo not given) | > 100 µM (inactive) | 38.7 µM (inactive) | 36.1 µM (inactive) | 23.7 µM (inactive) | 22.4 µM (inactive) | 54.7 µM (inactive) | 33.6 µM (inactive) | 49.9 µM (inactive) | 31.7 µM (inactive) | 43.6 µM (inactive) | 24.5 µM (inactive) | 41.5 µM (inactive) | 43.6 µM (inactive) | 85.5 µM (inactive) | 79.6 µM (inactive) | 96.6 µM (inactive) | 98.2 µM (inactive) | 57.9 µM (inactive) | 26.1 µM (inactive) | 43.9 µM (inactive)
COc1c(OC)c(N)c2cc(C)c(=O)c(C)cc2c1N | 64.7 µM (inactive) | > 100 µM (inactive) | 41.9 µM (inactive) | 35.4 µM (inactive) | > 100 µM (inactive) | > 100 µM (inactive) | > 100 µM (inactive) | > 100 µM (inactive) | > 100 µM (inactive) | > 100 µM (inactive) | 96.8 µM (inactive) | > 100 µM (inactive) | > 100 µM (inactive) | > 100 µM (inactive) | > 100 µM (inactive) | 56.4 µM (inactive) | > 100 µM (inactive) | > 100 µM (inactive) | > 100 µM (inactive) | > 100 µM (inactive)
CC(=O)O[C@@H]1CC[C@@]2(C)C(=O)C34C[C@@]5(C)C([C@@H](C)CCCC(C)C)CCC5(C)[C@](O)(O3)C(=O)[C@H]4C2C1(C)C (stereo not given in full) | 12.9 µM (inactive) | 22.2 µM (inactive) | 4.3 µM (inactive) | 14.5 µM (inactive) | 10.2 µM (inactive) | 13 µM (inactive) | 11.3 µM (inactive) | 13.1 µM (inactive) | 18.5 µM (inactive) | 13.4 µM (inactive) | 12.3 µM (inactive) | 13.4 µM (inactive) | 16.3 µM (inactive) | 18.3 µM (inactive) | 13.2 µM (inactive) | 15.7 µM (inactive) | 16.6 µM (inactive) | 14.3 µM (inactive) | 18.2 µM (inactive) | 13.3 µM (inactive)
CCCCCC(=O)N[C@H]1CCc2cc(O)c(O)c(O)c2-c2ccc(SC)c(=O)cc21 | 44.5 µM (inactive) | 29 µM (inactive) | 23.2 µM (inactive) | 23.3 µM (inactive) | 20.5 µM (inactive) | 32.7 µM (inactive) | 39.6 µM (inactive) | 19 µM (inactive) | > 80.5 µM (inactive) | 21.6 µM (inactive) | 15.1 µM (inactive) | 70.5 µM (inactive) | 23.4 µM (inactive) | 23.3 µM (inactive) | 20.3 µM (inactive) | 32.2 µM (inactive) | > 100 µM (inactive) | 27.9 µM (inactive) | 31.6 µM (inactive) | > 77.6 µM (inactive)
